In patent US20150141381A1, “TETRACYCLINE COMPOUNDS HAVING TARGET THERAPEUTIC ACTIVITIES” (Paratek Pharmaceuticals, Inc., priority 2001, published 2015):

What was measured:
S. aureus RN450 = test: In Vitro Anti-Bacterial Activity Assay (MIC), gram positive; type: cell-based; details: Staphylococcus aureus, RN450, 18 h, MIC class, Table 3; read-out: Antibiotic Activity Gram +
E. coli mL308 225 = test: In Vitro Anti-Bacterial Activity Assay (MIC), gram negative; type: cell-based; details: Escherichia coli, ML308225, 18 h, MIC class, Table 3; read-out: Antibiotic Activity Gram −

SMILES	MIC (S. aureus RN450) [µg/mL]	MIC (E. coli mL308 225) [µg/mL]
CN(C)[C@H]1C(O)=C(C(N)=O)C(=O)[C@@]2(O)C(O)=C3C(=O)c4c(O)c(CNCC(C)(C)C)cc(-c5ccoc5)c4C[C@H]3C[C@@H]12 [NP]	< 4	< 4
COc1ccc(CNCC(F)(F)F)cc1-c1ccc(O)c2c1C[C@H]1C[C@H]3C(N(C)C)C(O)=C(C(N)=O)C(=O)[C@@]3(O)C(O)=C1C2=O (some centres unmarked) [NQ]	< 4	> 4
CCC(NCc1cc(N(C)C)c2c(c1O)C(=O)C1=C(O)[C@]3(O)C(=O)C(C(N)=O)=C(O)C(N(C)C)[C@@H]3C[C@@H]1C2)C(F)(F)F (some centres unmarked) [NT]	< 4	> 4
CCc1ccnc(-c2ccc(O)c3c2C[C@H]2C[C@H]4[C@H](N(C)C)C(O)=C(C(N)=O)C(=O)[C@@]4(O)C(O)=C2C3=O)c1 [NZ]	< 4	< 4
CN(C)[C@@H]1C(O)=C(C(N)=O)C(=O)[C@@]2(O)C(O)=C3C(=O)c4c(O)ccc(-c5ccc(NC(=O)C6CCCN6C(=O)C(F)(F)F)cc5)c4C[C@H]3C[C@@H]12 (some centres unmarked) [OH]	< 4	> 4
CN(C)[C@@H]1C(OCc2ccccc2)=C(C(N)=O)C(=O)[C@@]2(O)C(O)=C3C(=O)c4c(cccc4OCc4ccccc4)C[C@H]3C[C@@H]12 [OJ]	> 4	> 4
CN(C)c1ccc(OCc2ccccc2)c2c1C[C@H]1C[C@H]3[C@H](N(C)C)C(OCc4ccccc4)=C(C(N)=O)C(=O)[C@@]3(O)C(O)=C1C2=O [ON]	> 4	> 4
CN(C)Cc1cc(-c2ccc(O)c3c2C[C@H]2C[C@H]4[C@H](N(C)C)C(O)=C(C(N)=O)C(=O)[C@@]4(O)C(O)=C2C3=O)ccc1F [OQ]	< 4	< 4
CCOC(=O)COC1=C(C(N)=O)C(=O)[C@@]2(O)C(O)=C3C(=O)c4c(O)cccc4C[C@H]3C[C@H]2[C@@H]1N(C)C [OR]	> 4	> 4
CCCCOc1ccc(I)c2c1C(=O)C1=C(O)[C@]3(O)C(=O)C(C(N)=O)=C(O)[C@@H](N(C)C)[C@@H]3C[C@@H]1C2 [OS]	> 4	> 4
CN(C)[C@@H]1C(OCc2ccccc2)=C(C(N)=O)C(=O)[C@@]2(O)C(O)=C3C(=O)c4c(O)ccc(-c5ccc(C(F)(F)F)cc5)c4C[C@H]3C[C@@H]12 [OU]	< 4	> 4
CCOC(=O)COC1=C(C(N)=O)C(=O)[C@@]2(O)C(O)=C3C(=O)c4c(O)ccc(I)c4C[C@H]3C[C@H]2[C@@H]1N(C)C [OY]	< 4	> 4
C[C@H]1c2ccc(C(C)(C)C)c(O)c2C(=O)C2=C(O)[C@]3(O)C(=O)C(C(N)=O)=C(O)[C@@H](N(C)C)[C@@H]3[C@@H](O)[C@@H]21 [O]	< 4	> 4
Cc1cc(-c2ccc(O)c3c2C[C@H]2C[C@H]4[C@H](N(C)C)C(O)=C(C(N)=O)C(=O)[C@@]4(O)C(O)=C2C3=O)cc(C)n1 [PD]	< 4	< 4
CN(C)[C@@H]1C(O)=C(C(N)=O)C(=O)[C@@]2(O)C(O)=C3C(=O)c4c(O)ccc(-c5cnc(N)nc5)c4C[C@H]3C[C@@H]12 [PF]	< 4	< 4
CN(C)c1cc(CNCc2ccc(OC(F)(F)F)cc2)c(O)c2c1C[C@H]1C[C@H]3[C@H](N(C)C)C(O)=C(C(N)=O)C(=O)[C@@]3(O)C(O)=C1C2=O [PJ]	< 4	> 4
CON(C)CC(=O)Nc1ccc(-c2ccc(O)c3c2C[C@H]2C[C@H]4[C@@H](N(C)C)C(O)=C(C(N)=O)C(=O)[C@@]4(O)C(O)=C2C3=O)cc1 [PN]	< 4	> 4
CN(C)[C@@H]1C(O)=C(C(N)=O)C(=O)[C@@]2(O)C(O)=C3C(=O)c4c(O)c(CN5CCCCC5)cc(-c5ccoc5)c4C[C@H]3C[C@@H]12 [PQ]	< 4	< 4
CN(C)[C@H]1C(O)=C(C(N)=O)C(=O)[C@@]2(O)C(O)=C3C(=O)c4c(O)ccc(-c5ncccn5)c4C[C@H]3C[C@@H]12 [PX]	< 4	> 4
